Experimental data reported in ChEMBL document CHEMBL1932976, “Synthesis of novel 1,3-diaryl pyrazole derivatives bearing rhodanine-3-fatty acid moieties as potential antibacterial agents” (2012).
In brackets after ≈: the same amount, converted by molar mass.

Legend:
Type in all cases: functional
Staphylococcus aureus [1] = experiment: Antibacterial activity against quinolone-resistant Staphylococcus aureus CCARM 3519 after 20 hrs by twofold serial dilution technique; settings: CCARM 3519, 20 h
Staphylococcus aureus [2] = experiment: Antibacterial activity against methicillin-resistant Staphylococcus aureus CCARM 3506 after 20 hrs by twofold serial dilution technique; settings: CCARM 3506, 20 h
Staphylococcus aureus [3] = experiment: Antibacterial activity against quinolone-resistant Staphylococcus aureus CCARM 3505 after 20 hrs by twofold serial dilution technique; settings: CCARM 3505, 20 h
Staphylococcus aureus [4] = experiment: Antibacterial activity against Staphylococcus aureus KCTC 503 after 20 hrs by twofold serial dilution technique; settings: KCTC 503, 20 h
Escherichia coli [5] = experiment: Antibacterial activity against Escherichia coli CCARM 1924 after 20 hrs by twofold serial dilution technique; settings: CCARM 1924, 20 h
Staphylococcus aureus [6] = experiment: Antibacterial activity against methicillin-resistant Staphylococcus aureus CCARM 3167 after 20 hrs by twofold serial dilution technique; settings: CCARM 3167, 20 h
Staphylococcus aureus [7] = experiment: Antibacterial activity against Staphylococcus aureus RN4220 after 20 hrs by twofold serial dilution technique; settings: RN4220, 20 h
Escherichia coli [8] = experiment: Antibacterial activity against Escherichia coli CCARM 1356 after 20 hrs by twofold serial dilution technique; settings: CCARM 1356, 20 h

SMILES	MIC (Staphylococcus aureus [1])	MIC (Staphylococcus aureus [2])	MIC (Staphylococcus aureus [3])	MIC (Staphylococcus aureus [4])	MIC (Escherichia coli [5])	MIC (Staphylococcus aureus [6])	MIC (Staphylococcus aureus [7])	MIC (Escherichia coli [8])
O=C(O)CN1C(=O)/C(=C/c2cn(-c3ccccc3)nc2-c2cccc(Cl)c2)SC1=S	64 µg/mL (≈ 140 µM)	32 µg/mL (≈ 70.2 µM)	16 µg/mL (≈ 35.1 µM)	> 64 µg/mL	> 64 µg/mL	16 µg/mL (≈ 35.1 µM)	16 µg/mL (≈ 35.1 µM)	> 64 µg/mL
COc1ccc(-c2nn(-c3ccccc3)cc2/C=C2\SC(=S)N(CC(=O)O)C2=O)cc1				> 64 µg/mL	> 64 µg/mL		> 64 µg/mL	> 64 µg/mL
O=C(O)CN1C(=O)/C(=C/c2cn(-c3ccccc3)nc2-c2cccc(Br)c2)SC1=S	64 µg/mL (≈ 128 µM)	16 µg/mL (≈ 32 µM)	16 µg/mL (≈ 32 µM)	32 µg/mL (≈ 63.9 µM)	> 64 µg/mL	8 µg/mL (≈ 16 µM)	8 µg/mL (≈ 16 µM)	> 64 µg/mL
O=C(O)CN1C(=O)/C(=C/c2cn(-c3ccccc3)nc2-c2ccccc2)SC1=S	32 µg/mL (≈ 75.9 µM)	32 µg/mL (≈ 75.9 µM)	32 µg/mL (≈ 75.9 µM)	64 µg/mL (≈ 152 µM)	> 64 µg/mL	32 µg/mL (≈ 75.9 µM)	64 µg/mL (≈ 152 µM)	> 64 µg/mL
O=C(O)CN1C(=O)/C(=C/c2cn(-c3ccccc3)nc2-c2ccc(Cl)cc2Cl)SC1=S	8 µg/mL (≈ 16.3 µM)	4 µg/mL (≈ 8.16 µM)	8 µg/mL (≈ 16.3 µM)	8 µg/mL (≈ 16.3 µM)	> 64 µg/mL	4 µg/mL (≈ 8.16 µM)	8 µg/mL (≈ 16.3 µM)	> 64 µg/mL
O=C(O)CN1C(=O)/C(=C/c2cn(-c3ccccc3)nc2-c2ccc(F)cc2)SC1=S				> 64 µg/mL	> 64 µg/mL		> 64 µg/mL	> 64 µg/mL
O=C(O)CN1C(=O)/C(=C/c2cn(-c3ccccc3)nc2-c2ccccc2F)SC1=S	64 µg/mL (≈ 146 µM)	64 µg/mL (≈ 146 µM)	64 µg/mL (≈ 146 µM)	64 µg/mL (≈ 146 µM)	> 64 µg/mL	64 µg/mL (≈ 146 µM)	64 µg/mL (≈ 146 µM)	> 64 µg/mL
O=C(O)CN1C(=O)/C(=C/c2cn(-c3ccccc3)nc2-c2ccc(Br)cc2)SC1=S	8 µg/mL (≈ 16 µM)	8 µg/mL (≈ 16 µM)	8 µg/mL (≈ 16 µM)	8 µg/mL (≈ 16 µM)	> 64 µg/mL	8 µg/mL (≈ 16 µM)	8 µg/mL (≈ 16 µM)	> 64 µg/mL
COc1cccc(-c2nn(-c3ccccc3)cc2/C=C2\SC(=S)N(CC(=O)O)C2=O)c1	64 µg/mL (≈ 142 µM)	64 µg/mL (≈ 142 µM)	64 µg/mL (≈ 142 µM)	64 µg/mL (≈ 142 µM)	> 64 µg/mL	32 µg/mL (≈ 70.9 µM)	64 µg/mL (≈ 142 µM)	> 64 µg/mL
O=C(O)CN1C(=O)/C(=C/c2cn(-c3ccccc3)nc2-c2ccccc2Cl)SC1=S	32 µg/mL (≈ 70.2 µM)	32 µg/mL (≈ 70.2 µM)	32 µg/mL (≈ 70.2 µM)	32 µg/mL (≈ 70.2 µM)	> 64 µg/mL	16 µg/mL (≈ 35.1 µM)	32 µg/mL (≈ 70.2 µM)	> 64 µg/mL
O=C(O)CN1C(=O)/C(=C/c2cn(-c3ccccc3)nc2-c2ccc([N+](=O)[O-])cc2)SC1=S				> 64 µg/mL	> 64 µg/mL		> 64 µg/mL	> 64 µg/mL
Cc1ccc(-c2nn(-c3ccccc3)cc2/C=C2\SC(=S)N(CC(=O)O)C2=O)c(C)c1	16 µg/mL (≈ 35.6 µM)	16 µg/mL (≈ 35.6 µM)	16 µg/mL (≈ 35.6 µM)	16 µg/mL (≈ 35.6 µM)	> 64 µg/mL	16 µg/mL (≈ 35.6 µM)	16 µg/mL (≈ 35.6 µM)	> 64 µg/mL
O=C(O)CN1C(=O)/C(=C/c2cn(-c3ccccc3)nc2-c2ccc3ccccc3c2)SC1=S				> 64 µg/mL	> 64 µg/mL		> 64 µg/mL	> 64 µg/mL
O=C(O)CN1C(=O)/C(=C/c2cn(-c3ccccc3)nc2-c2ccc(Cl)cc2)SC1=S	16 µg/mL (≈ 35.1 µM)	8 µg/mL (≈ 17.5 µM)	8 µg/mL (≈ 17.5 µM)	8 µg/mL (≈ 17.5 µM)	> 64 µg/mL	8 µg/mL (≈ 17.5 µM)	8 µg/mL (≈ 17.5 µM)	> 64 µg/mL
COc1ccccc1-c1nn(-c2ccccc2)cc1/C=C1\SC(=S)N(CC(=O)O)C1=O				> 64 µg/mL	> 64 µg/mL		> 64 µg/mL	> 64 µg/mL
O=C(O)CCN1C(=O)/C(=C/c2cn(-c3ccccc3)nc2-c2ccc(Cl)cc2)SC1=S	8 µg/mL (≈ 17 µM)	4 µg/mL (≈ 8.51 µM)	4 µg/mL (≈ 8.51 µM)	16 µg/mL (≈ 34 µM)	> 64 µg/mL	4 µg/mL (≈ 8.51 µM)	8 µg/mL (≈ 17 µM)	> 64 µg/mL
O=C(O)CCN1C(=O)/C(=C/c2cn(-c3ccccc3)nc2-c2ccc(Cl)cc2Cl)SC1=S	4 µg/mL (≈ 7.93 µM)	4 µg/mL (≈ 7.93 µM)	4 µg/mL (≈ 7.93 µM)	4 µg/mL (≈ 7.93 µM)	> 64 µg/mL	4 µg/mL (≈ 7.93 µM)	8 µg/mL (≈ 15.9 µM)	> 64 µg/mL
O=C(O)CCCN1C(=O)/C(=C/c2cn(-c3ccccc3)nc2-c2ccc(Cl)cc2Cl)SC1=S	4 µg/mL (≈ 7.72 µM)	4 µg/mL (≈ 7.72 µM)	4 µg/mL (≈ 7.72 µM)	4 µg/mL (≈ 7.72 µM)	> 64 µg/mL	4 µg/mL (≈ 7.72 µM)	8 µg/mL (≈ 15.4 µM)	> 64 µg/mL
O=C(O)CCCCN1C(=O)/C(=C/c2cn(-c3ccccc3)nc2-c2ccc(Cl)cc2)SC1=S				> 64 µg/mL	> 64 µg/mL		> 64 µg/mL	> 64 µg/mL
O=C(O)CCCCN1C(=O)/C(=C/c2cn(-c3ccccc3)nc2-c2ccc(Cl)cc2Cl)SC1=S	2 µg/mL (≈ 3.76 µM)	2 µg/mL (≈ 3.76 µM)	2 µg/mL (≈ 3.76 µM)	4 µg/mL (≈ 7.51 µM)	> 64 µg/mL	2 µg/mL (≈ 3.76 µM)	4 µg/mL (≈ 7.51 µM)	> 64 µg/mL
O=C(O)CCCCCN1C(=O)/C(=C/c2cn(-c3ccccc3)nc2-c2ccc(Cl)cc2)SC1=S				> 64 µg/mL	> 64 µg/mL		> 64 µg/mL	> 64 µg/mL
O=C(O)CCCCCN1C(=O)/C(=C/c2cn(-c3ccccc3)nc2-c2ccc(Cl)cc2Cl)SC1=S	4 µg/mL (≈ 7.32 µM)	32 µg/mL (≈ 58.6 µM)	32 µg/mL (≈ 58.6 µM)	8 µg/mL (≈ 14.6 µM)	> 64 µg/mL	4 µg/mL (≈ 7.32 µM)	32 µg/mL (≈ 58.6 µM)	> 64 µg/mL
Cc1ccc(-c2nn(-c3ccccc3)cc2/C=C2\SC(=S)N(CC(=O)O)C2=O)cc1	64 µg/mL (≈ 147 µM)	16 µg/mL (≈ 36.7 µM)	16 µg/mL (≈ 36.7 µM)	> 64 µg/mL	> 64 µg/mL	16 µg/mL (≈ 36.7 µM)	16 µg/mL (≈ 36.7 µM)	> 64 µg/mL
O=C(O)CCCN1C(=O)/C(=C/c2cn(-c3ccccc3)nc2-c2ccc(Cl)cc2)SC1=S	4 µg/mL (≈ 8.26 µM)	4 µg/mL (≈ 8.26 µM)	4 µg/mL (≈ 8.26 µM)	4 µg/mL (≈ 8.26 µM)	> 64 µg/mL	4 µg/mL (≈ 8.26 µM)	8 µg/mL (≈ 16.5 µM)	> 64 µg/mL
CCn1cc(C(=O)O)c(=O)c2cc(F)c(N3CCNCC3)cc21 [NORFLOXACIN]	> 64 µg/mL	4 µg/mL (≈ 12.5 µM)	> 64 µg/mL	2 µg/mL (≈ 6.26 µM)	16 µg/mL (≈ 50.1 µM)	8 µg/mL (≈ 25.1 µM)	2 µg/mL (≈ 6.26 µM)	16 µg/mL (≈ 50.1 µM)
Cc1onc(-c2ccccc2)c1C(=O)N[C@@H]1C(=O)N2[C@@H]1SC(C)(C)[C@@H]2C(=O)O [OXACILLIN]	1 µg/mL (≈ 2.49 µM)	> 64 µg/mL	1 µg/mL (≈ 2.49 µM)	1 µg/mL (≈ 2.49 µM)	> 64 µg/mL	> 64 µg/mL	1 µg/mL (≈ 2.49 µM)	> 64 µg/mL
